Results reported in patent US8106197B2, “Aminoheteroaryl compounds as protein kinase inhibitors” (Pfizer Inc., priority 2003, dated 2012).

How the values were obtained:
[1] = target: T1, GST fusion protein containing the Met kinase domain (Homo sapiens, UniProt P08581); experiment: MET transphosphorylation assay (ELISA, poly(glu-tyr) substrate); type: biochemical
T1 construct: Purified GST fusion protein containing the Met kinase domain, SUGEN, Inc
Description: MET Transphosphorylation Assay
This assay is used to measure phosphotyrosine levels on a poly(glutamic acid:tyrosine, 4:1) substrate as a means for identifying agonists/antagonists of met transphosphorylation of the substrate.
Purified GST fusion protein containing the Met kinase domain, SUGEN, Inc.
10% aqueous (MilliQue H2O) DMSO.
2× Kinase Dilution Buffer: for 100 mL, mix 10 mL 1M HEPES at pH 7.5 with 0.4 mL 5% BSA/PBS, 0.2 mL 0.1 M sodium orthovanadate and 1 mL 5M sodium chloride in 88.4 mL dH2O.
4× ATP Reaction Mixture: for 10 mL, mix 0.4 mL 1 M manganese chloride and 0.02 mL 0.1 M ATP in 9.56 mL dH2O.
4× Negative Controls Mixture: for 10 mL, mix 0.4 mL 1 M manganese chloride in 9.6 mL dH2O.
Antibody Dilution Buffer: for 100 mL, mix 10 mL 5% BSA/PBS, 0.5 mL 5% Carnation® Instant Milk in PBS and 0.1 mL 0.1 M sodium orthovanadate in 88.4 mL TBST.
Rabbit polyclonal antophosphotyrosine antibody, SUGEN, Inc.
Goat anti-rabbit horseradish peroxidase conjugated antibody, Biosource, Inc.
ABTS Solution: for 1 L, mix 19.21 g citric acid, 35.49 g Na2HPO4 and 500 mg ABTS with sufficient dH2O to make 1 L.
ABTS/H2O2: mix 15 mL ABST solution with 2 μL H2O2 five minutes before use.
Coat ELISA plates with 2 μg Poly(Glu-Tyr) in 100 μL PBS, hold-overnight at 4° C.
Block plate with 150 μL of 5% BSA/PBS for 60 min.
Wash plate twice with PBS then once with 50 mM Hepes buffer pH 7.4. […]

[2] = target: T2, HGFR (Homo sapiens, UniProt P08581); experiment: HGFR continuous-coupled spectrophotometric assay; type: biochemical; conditions: for inhibition at 1 µM: Table 6, percent c-MET inhibition at 1 μM, read-out: % inhibition; for inhibition at 0.05 µM: Table 5, percent c-MET inhibition at 50 nM; for I(%): Table 3, Ki(μM) or I(%), test concentration not given
T2 construct: purchased Upstate 14-526
T2 sequence (P08581 974-1390 limits assumed): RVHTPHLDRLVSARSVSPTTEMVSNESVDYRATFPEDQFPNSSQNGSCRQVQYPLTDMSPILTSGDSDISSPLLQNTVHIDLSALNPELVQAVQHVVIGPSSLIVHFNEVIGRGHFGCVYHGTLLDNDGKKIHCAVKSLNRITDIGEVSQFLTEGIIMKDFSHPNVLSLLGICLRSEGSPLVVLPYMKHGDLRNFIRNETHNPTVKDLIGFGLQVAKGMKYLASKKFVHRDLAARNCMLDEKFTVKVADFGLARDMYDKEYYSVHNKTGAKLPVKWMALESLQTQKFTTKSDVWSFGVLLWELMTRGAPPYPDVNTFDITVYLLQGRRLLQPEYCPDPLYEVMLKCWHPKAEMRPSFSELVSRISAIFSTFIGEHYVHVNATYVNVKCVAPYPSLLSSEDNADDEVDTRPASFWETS

T1 sequence (P08581 1078-1345 limits assumed): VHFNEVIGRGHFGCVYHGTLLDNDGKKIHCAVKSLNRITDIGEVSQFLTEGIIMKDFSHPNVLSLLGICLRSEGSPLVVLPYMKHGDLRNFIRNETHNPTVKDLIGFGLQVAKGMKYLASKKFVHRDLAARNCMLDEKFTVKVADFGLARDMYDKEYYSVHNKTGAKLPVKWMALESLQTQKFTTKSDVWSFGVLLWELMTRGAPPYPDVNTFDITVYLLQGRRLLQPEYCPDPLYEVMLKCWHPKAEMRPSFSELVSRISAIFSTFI

SMILES | % inhibition [2] | inhibition at 1 µM [2] | also measured
Nc1ncc(-c2ccccc2)cc1OCc1c(Cl)cccc1Cl [Example I-9, 3-(2,6-Dichloro-benzyloxy)-5-phenyl-pyridin-2-ylamine] |  |  | IC50 [1]: 3.9 µM
Nc1ncc(-c2ccc(C(=O)N3CCC(N4CCCC4)CC3)cc2)cc1OCc1nc(-c2ccccc2)n[nH]1 | % inhibition = 2 |  | 
CCc1ccc(COc2cc(-c3ccc(C(=O)N4CCC(N5CCCC5)CC4)cc3)cnc2N)nc1 | % inhibition = 15 |  | 
Nc1ncc(-c2ccc(C(=O)N3CCC(N4CCCC4)CC3)cc2)cc1OCc1noc(-c2cccc(C(F)(F)F)c2)n1 | % inhibition = 27 |  | 
Nc1ncc(-c2ccc(C(=O)N3CCC(N4CCCC4)CC3)cc2)cc1OCc1ccc(F)c(F)c1 | % inhibition = 19 |  | 
CCN1CCCC1CNC(=O)c1cccc(COc2cc(-c3ccc(C(=O)N4CCC(N5CCCC5)CC4)cc3)cnc2N)c1 (stereo not drawn) | % inhibition = 10 |  | 
Nc1ncc(-c2ccc(C(=O)N3CCC(N4CCCC4)CC3)cc2)cc1OCc1ccc(C(F)(F)F)cc1F | % inhibition = 25 |  | 
Nc1ncc(-c2ccc(C(=O)N3CCC(N4CCCC4)CC3)cc2)cc1OCc1nc2ccc(Cl)cc2[nH]1 | % inhibition = 16 |  | 
Cc1[nH]cnc1COc1cc(-c2ccc(C(=O)N3CCC(N4CCCC4)CC3)cc2)cnc1N | % inhibition = 12 |  | 
CC(Oc1cc(-c2ccc(C(=O)N3CCCC(O)C3)cc2)cnc1N)c1c(Cl)ccc(F)c1Cl (stereo not drawn) |  |  | inhibition at 0.05 µM [2]: 85%
Cc1cccnc1COc1cc(-c2ccc(C(=O)N3CCC(N4CCCC4)CC3)cc2)cnc1N | % inhibition = 16 |  | 
COC(=O)c1ccc(COc2cc(-c3ccc(C(=O)N4CCC(N5CCCC5)CC4)cc3)cnc2N)c(OC)c1 | % inhibition = 15 |  | 
Nc1ncc(C(=O)NC(CO)Cc2ccc(Cl)cc2)cc1OCc1c(Cl)cccc1Cl (stereo not drawn) |  | 27% | 
Nc1ncc(-c2ccc(C(=O)N3CCC(N4CCCC4)CC3)cc2)cc1OCc1nc2ncccn2n1 | % inhibition = 19 |  | 
Nc1ncc(-c2ccc(C(=O)N3CCC(N4CCCC4)CC3)cc2)cc1OCc1ccc(F)c(C(F)(F)F)c1 | % inhibition = 13 |  | 
CC(Oc1cc(-c2ccc(C(=O)NC[C@H](O)c3ccccc3)cc2)cnc1N)c1c(Cl)ccc(F)c1Cl (stereo partly drawn) |  |  | inhibition at 0.05 µM [2]: 69%
Nc1ncc(-c2ccc(C(=O)N3CCC(N4CCCC4)CC3)cc2)cc1OCc1nc2cccnc2[nH]1 | % inhibition = 17 |  | 
Cc1noc(C)c1-c1nc(COc2cc(-c3ccc(C(=O)N4CCC(N5CCCC5)CC4)cc3)cnc2N)no1 | % inhibition = 6 |  | 
Nc1ncc(C(=O)NCc2cccc(OC(F)F)c2)cc1OCc1c(Cl)cccc1Cl |  | 32% | 
Nc1ncc(-c2ccc(C(=O)N3CCC(N4CCCC4)CC3)cc2)cc1OCc1ccc(C(F)(F)F)cc1C(F)(F)F | % inhibition = 12 |  | 
CC(=O)NC1CCN(C(=O)c2ccc(-c3cnc(N)c(OC(C)c4c(Cl)ccc(F)c4Cl)c3)cc2)C1 (stereo not drawn) |  |  | inhibition at 0.05 µM [2]: 77%
Nc1ncc(-c2ccc(C(=O)N3CCC(N4CCCC4)CC3)cc2)cc1OCc1ccc(OCc2ccccc2)cc1 | % inhibition = 49 |  | 
Cc1cc(C)nc(COc2cc(-c3ccc(C(=O)N4CCC(N5CCCC5)CC4)cc3)cnc2N)n1 | % inhibition = 16 |  | 
COc1cccc(OC)c1-c1cnc(N)c(OC(C)c2c(Cl)ccc(F)c2Cl)c1 (stereo not drawn) [Example I-558, 3-[1-(2,6-Dichloro-3-fluoro-phenyl)-ethoxy]-5-(2,6-dimethoxy-phenyl)-pyridin-2-ylamine] |  |  | I(%) [2]: 2%
Cc1ccc(F)cc1COc1cc(-c2ccc(C(=O)N3CCC(N4CCCC4)CC3)cc2)cnc1N | % inhibition = 29 |  | 

SMILES | % inhibition [2] | inhibition at 1 µM [2] | also measured
Nc1ncc(-c2ccc(C(=O)N3CCC(N4CCCC4)CC3)cc2)cc1OCc1cccc(C(=O)NC2CCN(Cc3ccccc3)CC2)c1 | % inhibition = 13 |  | 
Nc1ncc(-c2ccc(C(=O)N3CCC(N4CCCC4)CC3)cc2)cc1OCc1cccc(F)c1F | % inhibition = 24 |  | 
Nc1ncc(-c2ccc(C(=O)N3CCC(N4CCCC4)CC3)cc2)cc1OCc1ccc(C(F)(F)F)cc1 | % inhibition = 10 |  | 
COc1cc(COc2cc(-c3ccc(C(=O)N4CCC(N5CCCC5)CC4)cc3)cnc2N)cc(OC)c1OC | % inhibition = 10 |  | 
CC(Oc1cc(-c2ccc(C(=O)N3C[C@@H](C)N[C@@H](C)C3)cc2)cnc1N)c1cccc(C(F)(F)F)c1 (stereo partly drawn) [Example I-617, (4-{6-Amino-5-[1-(3-trifluoromethyl-phenyl)-ethoxy]-pyridin-3-yl]-phenyl)-(3,5-dimethyl-piperazin-1-yl)-methanone] |  |  | I(%) [2]: 2%
Nc1ncc(-c2ccc(C(=O)N3CCC(N4CCCC4)CC3)cc2)cc1OCc1ccc(C(=O)c2ccccc2)cc1 | % inhibition = 31 |  | 
Nc1ncc(-c2ccc(C(=O)N3CCC(N4CCCC4)CC3)cc2)cc1OCc1ccc(C(=O)NC2CCN(Cc3ccccc3)C2)cc1 (stereo not drawn) | % inhibition = 24 |  | 
Nc1ncc(-c2ccc(C(=O)N3CCC(N4CCCC4)CC3)cc2)cc1OCc1ccc(Cl)c(Cl)c1 | % inhibition = 26 |  | 
Cn1nc(CC2CC2)nc1COc1cc(-c2ccc(C(=O)N3CCC(N4CCCC4)CC3)cc2)cnc1N | % inhibition = 7 |  | 
COc1ccc(OC)c(COc2cc(-c3ccc(C(=O)N4CCC(N5CCCC5)CC4)cc3)cnc2N)c1 | % inhibition = 19 |  | 
Nc1ncc(-c2ccc(C(=O)N3CCC(N4CCCC4)CC3)cc2)cc1OCc1ccc(Br)cc1F | % inhibition = 31 |  | 
CCCCOc1ccc(CNC(=O)c2cnc(N)c(OCc3c(Cl)cccc3Cl)c2)cc1 |  | 18% | 
CC(Oc1cc(-c2ccccc2OC(F)(F)F)cnc1N)c1c(Cl)ccc(F)c1Cl (stereo not drawn) [Example I-561, 3-[1-(2,6-Didiloro-3-fluoro-phenyl)-ethoxy]-5-(2-trifluoromethoxy-phenyl)-pyridin-2-ylamine] |  |  | I(%) [2]: 14%
Nc1ncc(-c2ccc(C(=O)N3CCC(N4CCCC4)CC3)cc2)cc1OCc1ccccc1OC(F)(F)F | % inhibition = 21 |  | 
Nc1ncc(-c2ccc(C(=O)N3CCC(N4CCCC4)CC3)cc2)cc1OCc1cccc(Cl)c1Cl | % inhibition = 40 |  | 
Nc1ncc(-c2ccc(C(=O)N3CCC(N4CCCC4)CC3)cc2)cc1OCc1cn2cccnc2n1 | % inhibition = 16 |  | 
CC(C)Oc1cc(C(F)(F)F)nc2ccc(COc3cc(-c4ccc(C(=O)N5CCC(N6CCCC6)CC5)cc4)cnc3N)cc12 | % inhibition = 19 |  | 
Nc1ncc(-c2ccc(C(=O)N3CCC(N4CCCC4)CC3)cc2)cc1OCc1cc(F)c(F)c(F)c1 | % inhibition = 19 |  | 
CCOC(=O)CCNC(=O)c1cccc(COc2cc(-c3ccc(C(=O)N4CCC(N5CCCC5)CC4)cc3)cnc2N)c1 | % inhibition = 14 |  | 
CCC(C)NC(=O)c1ccc(-c2cnc(N)c(OC(C)c3c(Cl)ccc(F)c3Cl)c2)cc1 (stereo not drawn) |  |  | inhibition at 0.05 µM [2]: 64%
CCOC(=O)C1CCN(C(=O)c2ccc(COc3cc(-c4ccc(C(=O)N5CCC(N6CCCC6)CC5)cc4)cnc3N)cc2)CC1 | % inhibition = 16 |  | 
Nc1ncc(-c2ccc(C(=O)N3CCC(N4CCCC4)CC3)cc2)cc1OCc1cc(F)cc(C(F)(F)F)c1 | % inhibition = 12 |  | 
Nc1ncc(-c2ccc(C(=O)N3CCC(N4CCCC4)CC3)cc2)cc1OCc1ccccc1OC(F)F | % inhibition = 27 |  | 
Nc1ncc(-c2ccc(C(=O)N3CCC(N4CCCC4)CC3)cc2)cc1OCc1cc(F)c(F)cc1F | % inhibition = 12 |  | 
CCN(CC)c1ccc(NC(=O)c2ccc(COc3cc(-c4ccc(C(=O)N5CCC(N6CCCC6)CC5)cc4)cnc3N)cc2)cc1 | % inhibition = 47 |  | 

Continued, in another order:

% inhibition [2] | inhibition at 1 µM [2] | SMILES | also measured
 | 26% | Nc1ncc(C(=O)NCc2noc(C(=O)N3CCC(CO)CC3)n2)cc1OCc1c(Cl)cccc1Cl | 
 | 29% | Nc1ncc(C(=O)NCCc2c[nH]cn2)cc1OCc1c(Cl)cccc1Cl | 
 | 21% | Nc1ncc(C(=O)N2CCCC(C(=O)N3CCOCC3)C2)cc1OCc1c(Cl)cccc1Cl (stereo not drawn) | 
 | 30% | CN(C)c1ccc(CNC(=O)c2cnc(N)c(OCc3c(Cl)cccc3Cl)c2)cc1 | 
 | 36% | Nc1ncc(C(=O)NCCN2CCN(Cc3ccccc3)CC2)cc1OCc1c(Cl)cccc1Cl | 
 | 10% | CN(C)C(=O)c1cnc(N)c(OCc2c(Cl)cccc2Cl)c1 | 
 | 23% | COCC1CN(CC(N)=O)CCN(C(=O)c2cnc(N)c(OCc3c(Cl)cccc3Cl)c2)C1 (stereo not drawn) | 
 | 23% | Cc1nc(CCNC(=O)c2cnc(N)c(OCc3c(Cl)cccc3Cl)c2)c[nH]1 | 
 | 83% | Nc1ncc(C(=O)N2CCC(O)C2)cc1OCc1c(Cl)cccc1Cl (stereo not drawn) | 
 | 42% | CN(C)C(=O)CN1CCN(C(=O)c2cnc(N)c(OCc3c(Cl)cccc3Cl)c2)CC1 | 
 | 31% | Nc1ncc(C(=O)N2CCNC(=O)CC2)cc1OCc1c(Cl)cccc1Cl | 
 | 62% | Nc1ncc(C(=O)N2CCC(O)(Cc3ccccc3)CC2)cc1OCc1c(Cl)cccc1Cl | 
 | 24% | Nc1ncc(C(=O)N[C@@H]2CCCC[C@H]2CO)cc1OCc1c(Cl)cccc1Cl | 
 | 33% | Nc1ncc(C(=O)NCCc2ccccc2F)cc1OCc1c(Cl)cccc1Cl | 
 | 31% | Cc1ccc(F)c(CNC(=O)c2cnc(N)c(OCc3c(Cl)cccc3Cl)c2)c1F | 
 | 35% | CC(O)CCNC(=O)c1cnc(N)c(OCc2c(Cl)cccc2Cl)c1 (stereo not drawn) | 
 | 12% | NC(=O)c1ccc(CC2CCN(C(=O)c3cnc(N)c(OCc4c(Cl)cccc4Cl)c3)CC2)cc1 | 
 | 45% | CCCOCCNC(=O)c1cnc(N)c(OCc2c(Cl)cccc2Cl)c1 | 
 | 45% | Cc1ccn2cc(CNC(=O)c3cnc(N)c(OCc4c(Cl)cccc4Cl)c3)nc2n1 | 
 | 28% | NC(=O)CCNC(=O)c1cnc(N)c(OCc2c(Cl)cccc2Cl)c1 | 
 | 32% | COc1ccccc1CNC(=O)c1cnc(N)c(OCc2c(Cl)cccc2Cl)c1 | 
 | 30% | Nc1ncc(C(=O)NCc2ccc(S(N)(=O)=O)cc2)cc1OCc1c(Cl)cccc1Cl | 
